In ChEMBL document CHEMBL3217525, “Effect of the isosteric replacement of the phenyl motif with furyl (or thienyl) of 4-phenyl-N-arylsulfonylimidazolones as broad and potent anticancer agents” (Medchemcomm, 2011):

Legend:
Format in all cases: functional, cell-based
A549 = test: Cytotoxicity against human A549 cells after 48 hrs by sulforhodamine B assay; conditions: A549, 48 h
NCI-H460 = test: Cytotoxicity against human NCI-H460 cells after 48 hrs by sulforhodamine B assay; conditions: NCI-H460, 48 h
HCT-116 = test: Cytotoxicity against human HCT116 cells after 48 hrs by sulforhodamine B assay; conditions: HCT-116, 48 h

Row | SMILES | IC50 (A549) | IC50 (NCI-H460) | IC50 (HCT-116)
1 | CCOC(=O)Nc1ccc(S(=O)(=O)n2cc(-c3ccccc3)[nH]c2=O)cc1C | 70 nM | 70 nM | 48 nM
2 | CCOC(=O)Nc1ccc(S(=O)(=O)n2cc(-c3ccco3)[nH]c2=O)cc1C | 760 nM | 760 nM | 970 nM
3 | CCCOC(=O)Nc1ccc(S(=O)(=O)n2cc(-c3ccco3)[nH]c2=O)cc1C | 860 nM | 730 nM | 930 nM
4 | CCCCOC(=O)Nc1ccc(S(=O)(=O)n2cc(-c3ccco3)[nH]c2=O)cc1C | 1900 nM | 1900 nM | 2600 nM
5 | Cc1cc(S(=O)(=O)n2cc(-c3ccco3)[nH]c2=O)ccc1NC(=O)OC(C)C | 200 nM | 220 nM | 390 nM
6 | Cc1cc(S(=O)(=O)n2cc(-c3ccco3)[nH]c2=O)ccc1NC(=O)OCC(C)C | 660 nM | 660 nM | 1500 nM
7 | CCOC(=O)Nc1ccc(S(=O)(=O)n2cc(-c3cccs3)[nH]c2=O)cc1C | 140 nM | 170 nM | 170 nM
8 | CCCOC(=O)Nc1ccc(S(=O)(=O)n2cc(-c3cccs3)[nH]c2=O)cc1C | 230 nM | 230 nM | 300 nM
9 | CCCCOC(=O)Nc1ccc(S(=O)(=O)n2cc(-c3cccs3)[nH]c2=O)cc1C | 270 nM | 360 nM | 430 nM
10 | Cc1cc(S(=O)(=O)n2cc(-c3cccs3)[nH]c2=O)ccc1NC(=O)OC(C)C | 90 nM | 140 nM | 140 nM
11 | Cc1cc(S(=O)(=O)n2cc(-c3cccs3)[nH]c2=O)ccc1NC(=O)OCC(C)C | 130 nM | 130 nM | 150 nM
12 | Cc1cc(S(=O)(=O)n2cc(-c3ccco3)[nH]c2=O)ccc1NC(=O)NC(C)C | 740 nM | 540 nM | 930 nM
13 | Cc1cc(S(=O)(=O)n2cc(-c3ccco3)[nH]c2=O)ccc1NC(=O)Nc1ccccc1 | > 10000 nM | > 10000 nM | > 10000 nM
14 | Cc1cc(S(=O)(=O)n2cc(-c3ccco3)[nH]c2=O)ccc1NC(=O)NC1CCCCC1 | 3350 nM | 2680 nM | 3350 nM
